Data published in US20190276439A1, “METHOD OF TREATING SOLID TUMORS” (priority 2016, published 2019).
Where two headings read alike, the source gives them in different places.

Legend:
VEGFR 3 = VEGFR 3 (Homo sapiens, UniProt P35916); test: Compound A kinase selectivity profile; format: biochemical
VEGFR 2 = VEGFR 2 (Homo sapiens, UniProt P35968); test: Compound A kinase selectivity profile; format: biochemical
Fms kinase = target: T1, Fms kinase (Homo sapiens, UniProt P07333); test: CSF1R inhibition, [γ-33P-ATP] incorporation assay (Eurofins); format: biochemical
T1 construct: purchased Eurofins Pharma Discovery Services UK Ltd
Experimental: Inhibition of compound A on Fins was determined using […] incorporation assay carried by Eurofins Pharma Discovery Services UK Ltd. Fms kinase was incubated with 8 mM MOPS (3-(N-Morpholino)propanesulfonic acid sodium) pH 7.0, 0.2 mM EDTA ((Ethylenedinitrilo)tetraacetic acid disodium salt), 250 μM […] (a peptide), 10 mM MgAcetate and [γ-33P-ATP] (specific activity approx. 500 cpm/pmol, concentration as required). The reaction was initiated by the addition of the MgATP mix. After incubation for 40 minutes at room temperature, the reaction was stopped by the addition of 3% phosphoric acid solution. 10 μL of the reaction was then spotted onto a P30 filtermat and washed three times for 5 minutes in 75 mM phosphoric acid and once in methanol prior to drying and scintillation counting.

CSF1R = CSF1R (Homo sapiens, UniProt P07333); test: Compound A kinase selectivity profile; format: biochemical
TrkB = TrkB (Homo sapiens, UniProt Q16620); test: Compound A kinase selectivity profile; format: biochemical
[1] = Phase 1 clinical study: toxicity, DLT and MTD assessments; format: in vivo, human; conditions: doses of 50-350 mg QD and 125-150 mg BID; up to 350 mg QD (formulation 2)
Experimental: During the dose-escalation phase, patients were given a single dose of compound A and monitored for adverse events (AEs) for 7 days. If no clinically significant toxicities were observed, patients could enter the 28-day dose-limiting toxicity (DLT) observation phase where they received compound A continuously for 28 days. DLTs were assessed at the end of the 28-day period. If no patients experienced a DLT during the 28-day period, the dose was escalated (FIG. 1). After the completion of the DLT observation phase, patients could continue compound A treatment at their current dose (if they were judged by the investigator to be benefiting from the treatment) until any of the withdrawal criteria (investigator's decision that withdrawal was in the patient's best interest, intolerable toxicity, disease progression) were met.
The study used a modified Fibonacci 3+3 dose-escalation design with at least three evaluable patients treated with each dose. In total, 12 dose cohorts were assessed (FIG. 1). […] If […] patients experienced a DLT, the MTD was considered exceeded and the previous lower dose would be re-assessed to determine the MTD. […]
Safety and tolerability were assessed in all patients who received at least one dose of study medication throughout the study. AEs were recorded throughout the study. […]

advanced solid tumors = test: Phase 1 clinical study: tumor response (RECIST Version 1.0); format: in vivo, human; conditions: total 77 patients
Experimental: Patients with neuroendocrine tumors (NETs) were enrolled with priority as preliminary efficacy was shown in these tumor types in the dose-escalation stage.
Tumor response (an exploratory endpoint) was assessed according to Response Evaluation Criteria in Solid Tumors (RECIST) Version 1.0 and measured at baseline, and at the end of every treatment cycle in the first 4 cycles and every other cycle thereafter. Patients with an initial assessment of complete response (CR) or partial response (PR) had to have the result confirmed by a repeat tumor assessment at least 4 weeks later. Calculations of the following parameters were made: objective response rate (ORR) (CR+PR); stable disease (SD) defined as ≥1 assessment of SD at least 6 weeks after study entry; disease control rate (DCR) (CR+PR+SD). Time to response (TTR), duration of response (DoR), and progression-free survival (PFS) were assessed in the subgroup of patients with NET.

FLT3 = target: T2, FLT3 (Homo sapiens, UniProt P36888); test: Compound A kinase selectivity profile; format: biochemical
T2 sequence (P36888 27-993): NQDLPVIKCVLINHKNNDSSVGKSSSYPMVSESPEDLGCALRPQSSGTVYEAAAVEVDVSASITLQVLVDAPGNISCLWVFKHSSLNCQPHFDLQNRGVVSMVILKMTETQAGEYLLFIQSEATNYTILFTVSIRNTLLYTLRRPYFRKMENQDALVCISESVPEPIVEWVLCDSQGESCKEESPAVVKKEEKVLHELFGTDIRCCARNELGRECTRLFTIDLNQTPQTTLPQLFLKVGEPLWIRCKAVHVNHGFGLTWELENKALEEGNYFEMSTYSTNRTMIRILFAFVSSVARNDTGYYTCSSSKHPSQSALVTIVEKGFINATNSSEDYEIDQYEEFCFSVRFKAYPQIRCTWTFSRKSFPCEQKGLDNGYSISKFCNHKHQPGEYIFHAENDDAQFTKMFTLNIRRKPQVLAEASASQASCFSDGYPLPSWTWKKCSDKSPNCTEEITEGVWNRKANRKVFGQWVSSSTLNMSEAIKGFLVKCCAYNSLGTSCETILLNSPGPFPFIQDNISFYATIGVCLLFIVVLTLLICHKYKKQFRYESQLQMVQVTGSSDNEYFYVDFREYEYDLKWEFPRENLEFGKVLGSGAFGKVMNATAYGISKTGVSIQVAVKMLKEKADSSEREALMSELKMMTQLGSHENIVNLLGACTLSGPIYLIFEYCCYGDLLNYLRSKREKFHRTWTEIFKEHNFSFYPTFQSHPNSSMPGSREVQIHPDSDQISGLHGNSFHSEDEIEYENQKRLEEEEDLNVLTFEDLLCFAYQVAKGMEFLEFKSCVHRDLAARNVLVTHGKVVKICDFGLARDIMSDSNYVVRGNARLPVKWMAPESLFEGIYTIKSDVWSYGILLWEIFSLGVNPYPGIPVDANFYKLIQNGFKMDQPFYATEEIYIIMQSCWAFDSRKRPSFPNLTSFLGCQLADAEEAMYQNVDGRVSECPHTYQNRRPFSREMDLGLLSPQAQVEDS

278 other kinases = test: Compound A kinase selectivity profile; format: biochemical
FGFR1 = FGFR1 (Homo sapiens, UniProt P11362); test: Compound A kinase selectivity profile; format: biochemical
VEGFR 1 = VEGFR 1 (Homo sapiens, UniProt P17948); test: Compound A kinase selectivity profile; format: biochemical
NET = conditions: cited from earlier work; for ORR: phase 3 trial

T1 sequence (P07333 20-972): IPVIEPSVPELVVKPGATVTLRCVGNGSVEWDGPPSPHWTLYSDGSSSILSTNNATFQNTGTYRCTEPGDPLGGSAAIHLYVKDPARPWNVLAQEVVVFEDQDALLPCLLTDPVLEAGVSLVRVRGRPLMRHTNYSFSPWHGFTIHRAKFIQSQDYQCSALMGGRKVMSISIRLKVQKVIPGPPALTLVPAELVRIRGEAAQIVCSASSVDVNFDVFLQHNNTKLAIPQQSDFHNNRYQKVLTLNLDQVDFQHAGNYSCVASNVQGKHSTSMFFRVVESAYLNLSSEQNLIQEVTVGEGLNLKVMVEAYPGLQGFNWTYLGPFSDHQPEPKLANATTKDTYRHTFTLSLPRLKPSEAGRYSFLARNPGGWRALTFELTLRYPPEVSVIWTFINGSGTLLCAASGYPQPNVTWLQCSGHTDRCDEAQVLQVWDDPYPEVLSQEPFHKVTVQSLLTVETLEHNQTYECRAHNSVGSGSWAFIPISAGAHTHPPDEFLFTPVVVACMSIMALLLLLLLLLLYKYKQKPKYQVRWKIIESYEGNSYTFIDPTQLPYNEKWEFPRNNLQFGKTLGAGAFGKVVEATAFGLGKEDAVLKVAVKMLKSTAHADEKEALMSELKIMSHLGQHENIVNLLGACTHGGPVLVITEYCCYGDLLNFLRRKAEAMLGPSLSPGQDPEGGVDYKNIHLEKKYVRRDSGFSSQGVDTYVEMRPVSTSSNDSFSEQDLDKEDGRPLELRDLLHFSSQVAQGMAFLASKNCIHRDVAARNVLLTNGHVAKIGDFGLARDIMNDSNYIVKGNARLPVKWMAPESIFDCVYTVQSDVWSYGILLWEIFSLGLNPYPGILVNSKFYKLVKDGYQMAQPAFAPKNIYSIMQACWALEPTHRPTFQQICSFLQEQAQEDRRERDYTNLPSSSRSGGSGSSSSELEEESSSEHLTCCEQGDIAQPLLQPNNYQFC
FGFR1, sequence (P11362 22-822): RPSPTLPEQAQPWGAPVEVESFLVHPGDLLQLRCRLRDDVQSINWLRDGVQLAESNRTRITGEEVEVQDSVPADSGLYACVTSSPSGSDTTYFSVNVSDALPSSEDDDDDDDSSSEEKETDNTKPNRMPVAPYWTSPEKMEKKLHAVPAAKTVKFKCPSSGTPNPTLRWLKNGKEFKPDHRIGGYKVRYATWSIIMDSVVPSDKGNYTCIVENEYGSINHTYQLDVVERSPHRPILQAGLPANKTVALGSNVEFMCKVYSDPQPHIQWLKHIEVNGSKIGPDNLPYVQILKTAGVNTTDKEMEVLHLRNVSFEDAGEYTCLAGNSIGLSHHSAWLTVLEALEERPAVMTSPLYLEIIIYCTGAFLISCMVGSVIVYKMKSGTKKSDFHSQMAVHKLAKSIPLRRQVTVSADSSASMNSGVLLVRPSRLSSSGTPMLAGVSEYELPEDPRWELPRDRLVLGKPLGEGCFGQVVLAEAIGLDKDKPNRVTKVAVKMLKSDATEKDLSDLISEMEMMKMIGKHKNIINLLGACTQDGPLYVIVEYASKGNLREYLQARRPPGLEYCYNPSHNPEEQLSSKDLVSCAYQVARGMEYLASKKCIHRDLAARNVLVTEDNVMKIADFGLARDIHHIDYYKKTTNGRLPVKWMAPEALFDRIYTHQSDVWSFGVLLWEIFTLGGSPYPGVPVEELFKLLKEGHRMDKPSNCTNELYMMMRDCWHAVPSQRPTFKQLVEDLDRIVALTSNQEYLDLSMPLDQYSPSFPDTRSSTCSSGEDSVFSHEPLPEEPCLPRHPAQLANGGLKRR
CSF1R, sequence (P07333 20-972): as the sequence (P07333 20-972) above
VEGFR 2, sequence (P35968 20-1356): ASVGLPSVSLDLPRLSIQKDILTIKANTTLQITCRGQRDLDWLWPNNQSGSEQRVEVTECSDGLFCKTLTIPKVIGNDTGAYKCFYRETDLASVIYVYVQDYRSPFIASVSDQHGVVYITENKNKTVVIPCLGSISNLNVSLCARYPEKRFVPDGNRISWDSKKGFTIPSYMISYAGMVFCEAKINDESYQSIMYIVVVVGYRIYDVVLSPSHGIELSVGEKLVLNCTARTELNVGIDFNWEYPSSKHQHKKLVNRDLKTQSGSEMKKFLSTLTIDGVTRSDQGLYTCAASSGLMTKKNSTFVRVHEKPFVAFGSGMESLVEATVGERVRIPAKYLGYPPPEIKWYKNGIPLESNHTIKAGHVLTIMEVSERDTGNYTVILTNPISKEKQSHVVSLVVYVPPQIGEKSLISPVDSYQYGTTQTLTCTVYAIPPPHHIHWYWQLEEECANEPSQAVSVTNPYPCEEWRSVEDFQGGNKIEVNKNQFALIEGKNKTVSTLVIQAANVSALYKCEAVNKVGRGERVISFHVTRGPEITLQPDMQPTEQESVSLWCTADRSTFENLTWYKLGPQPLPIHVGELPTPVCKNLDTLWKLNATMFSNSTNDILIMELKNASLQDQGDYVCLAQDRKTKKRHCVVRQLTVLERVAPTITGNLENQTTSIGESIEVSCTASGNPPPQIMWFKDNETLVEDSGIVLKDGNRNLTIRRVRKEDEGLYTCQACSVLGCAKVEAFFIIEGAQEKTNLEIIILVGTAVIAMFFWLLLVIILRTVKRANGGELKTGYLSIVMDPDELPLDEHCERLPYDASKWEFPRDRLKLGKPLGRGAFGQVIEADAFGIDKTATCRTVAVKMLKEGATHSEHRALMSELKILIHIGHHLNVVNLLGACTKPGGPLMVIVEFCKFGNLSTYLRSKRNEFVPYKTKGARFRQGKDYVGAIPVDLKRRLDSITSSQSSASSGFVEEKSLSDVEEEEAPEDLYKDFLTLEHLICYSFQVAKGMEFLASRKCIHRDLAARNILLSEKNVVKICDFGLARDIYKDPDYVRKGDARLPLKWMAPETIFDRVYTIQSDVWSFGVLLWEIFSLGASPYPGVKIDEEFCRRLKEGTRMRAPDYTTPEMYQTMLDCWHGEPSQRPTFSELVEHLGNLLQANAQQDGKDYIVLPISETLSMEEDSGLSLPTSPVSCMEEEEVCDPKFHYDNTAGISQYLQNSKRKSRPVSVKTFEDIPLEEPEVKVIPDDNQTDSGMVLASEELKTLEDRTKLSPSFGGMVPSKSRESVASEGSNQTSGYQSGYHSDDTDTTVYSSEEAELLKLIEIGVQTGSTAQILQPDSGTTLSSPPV
TrkB, sequence (Q16620 32-822): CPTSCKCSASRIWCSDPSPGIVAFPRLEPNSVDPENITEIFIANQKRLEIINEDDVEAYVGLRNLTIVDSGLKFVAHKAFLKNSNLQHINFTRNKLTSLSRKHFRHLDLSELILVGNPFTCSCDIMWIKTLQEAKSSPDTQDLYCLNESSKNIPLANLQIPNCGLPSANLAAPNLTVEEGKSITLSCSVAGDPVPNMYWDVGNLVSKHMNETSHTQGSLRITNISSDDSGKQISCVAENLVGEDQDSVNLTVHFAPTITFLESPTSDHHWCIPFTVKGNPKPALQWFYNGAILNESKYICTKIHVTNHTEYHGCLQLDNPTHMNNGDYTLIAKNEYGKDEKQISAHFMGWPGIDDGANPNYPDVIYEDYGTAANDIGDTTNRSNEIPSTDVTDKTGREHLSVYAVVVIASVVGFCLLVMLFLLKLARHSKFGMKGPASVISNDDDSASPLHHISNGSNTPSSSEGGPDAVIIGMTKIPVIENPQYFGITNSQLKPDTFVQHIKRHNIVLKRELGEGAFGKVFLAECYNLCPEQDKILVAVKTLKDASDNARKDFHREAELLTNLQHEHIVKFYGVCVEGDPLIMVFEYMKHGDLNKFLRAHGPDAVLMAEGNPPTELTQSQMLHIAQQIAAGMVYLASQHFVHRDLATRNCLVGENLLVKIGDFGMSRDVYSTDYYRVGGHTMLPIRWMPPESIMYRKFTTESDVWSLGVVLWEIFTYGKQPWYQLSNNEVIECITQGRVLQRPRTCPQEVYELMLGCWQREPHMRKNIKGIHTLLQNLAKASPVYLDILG

## Cc1cc2cc(Oc3ccnc(Nc4cccc(CS(=O)(=O)NCCN(C)C)c4)n3)ccc2[nH]1 [Compound A, N-(2-(dimethylamino)ethyl)-1-(3-((4-((2-methyl-1H-indol-5-yl)oxy)pyrimidin-2-yl)amino)phenyl)-methanesulfonamide]
VEGFR 3
  IC50: 0.001 µM
VEGFR 2
  IC50: 0.024 µM
Fms kinase; 0.0001 μM
  IH (%): −3%
Fms kinase; 0.0003 μM
  IH (%): 3%
Fms kinase; 0.001 μM
  IH (%): 15%
Fms kinase; 0.003 μM
  IH (%): 38%
Fms kinase; 0.01 μM
  IH (%): 72%
Fms kinase; 0.03 μM
  IH (%): 86%
Fms kinase; 0.1 μM
  IH (%): 94%
Fms kinase; 0.3 μM
  IH (%): 98%
Fms kinase; 1 μM
  IH (%): 98%
CSF1R
  IC50: 0.004 µM
TrkB
  IC50: 0.041 µM
[1]
  MTD (maximum tolerated dose): not reached
Advanced solid tumors
  patients with confirmed PR: nine
FLT3
  IC50: 0.067 µM
278 other kinases
  IC50: > 0.15 µM
FGFR1
  IC50: 0.015 µM
VEGFR 1
  IC50: 0.002 µM

## CO[C@H]1C[C@@H]2CC[C@@H](C)[C@@](O)(O2)C(=O)C(=O)N2CCCC[C@H]2C(=O)O[C@H]([C@H](C)C[C@@H]2CC[C@@H](OCCO)[C@H](OC)C2)CC(=O)[C@H](C)/C=C(\C)[C@@H](O)[C@@H](OC)C(=O)[C@H](C)C[C@H](C)/C=C/C=C/C=C/1C [everolimus]
NET; GI and lung NET
  ORR: 2%
NET; pancreatic NET
  ORR: 5%
NET; phase 3 trials
  median PFS: approximately 11 months
